Reference: US20240124444A1 (Celgene Corporation, priority 2020, published 2024)
Read-outs that look alike come from different tables or passages of the source.

Test system: C. parvum strain UGA1
Test: C. parvum growth inhibition assay (Nluc luminescence in HCT-8 cells)
Type: cell-based, Cryptosporidium parvum
Details: for EC50 / inhibition at 1 µM / inhibition at 10 µM: Cryptosporidium parvum; for EC50: HCT-8, 48 h, C. parvum growth inhibition in HCT-8 cells, 48 hours, 6 concentrations 10-0.04 μM; for inhibition at 1 µM / inhibition at 10 µM: HCT-8; for inhibition at 1 µM: read-out: % inh @ 1 uM C. parvum; for inhibition at 10 µM: read-out: % inh @ 10 uM C. parvum
Experimental: C. parvum GROWTH INHIBITION ASSAYS
C. parvum growth inhibition was performed as described in Hulverson M A, Vinayak S, Choi R, Schaefer D A, Castellanos-Gonzalez A, Vidadala R S R, Brooks C F, Herbert G T, Betzer D P, Whitman G R, Sparks H N, Arnold S L M, Rivas K L, Barrett L K, White A C Jr, Maly D J, Riggs M W, Striepen B, Van Voorhis W C, Ojo K K. Bumped-Kinase Inhibitors for Cryptosporidiosis Therapy. J Infect Dis. 2017 Apr. 15; 215(8):1275-1284.
C. parvum strain UGA1 […] (ATCC, Manassas, VA) were prepared as described below. HCT-8 cells were inoculated onto 96-well plates were grown for 48 hours to 90%-100% confluence. C. parvum oocysts were then incubated for 10 minutes in 10% bleach at room temperature and washed with Dulbecco's phosphate-buffered saline. One thousand oocysts per well were applied to plates with Roswell Park Memorial Institute 1640 (RPMI) medium supplemented with 10% horse serum and 1% penicillin/streptomycin. Compounds of Formula (I), Formula (II), and Formula (III) were added to the plates at different concentrations and the plates were incubated for 48 hours. Following the incubation, the monolayers were lysed for 1 hour before a luciferase reagent was added, and relative luminescence units were determined.
For certain compounds of Formula I, Formula II, and Formula III, EC50 values were calculated using curves calculated from Prism after analysis of C. parvum growth inhibition at 6 different concentrations: 10, 3.33, 1.11, 0.37, 0.12, and 0.04 μM. […] For certain compounds of Formula I, Formula II, and Formula III, single point inhibition values of 0-33% (activity level D), between 33% and 66% (activity level E), and between 67% and 100% (activity level F) are also shown in Table 1 below.

[1] = single point inhibition @ 10 uM
[2] = single point inhibition at 1 uM
[3] = single point inhibition at 10 uM

SMILES | EC50 [µM] | inhibition at 1 µM (single point inhibition @ 1 uM) [%] | inhibition at 10 µM [1] [%] | inhibition at 1 µM [2] [%] | inhibition at 10 µM [3] [%] | further results
Cn1c(-c2ccnc(NCC(F)(F)F)n2)cc2cnc(N[C@H]3CCCOC3)cc21 (racemic) [Example 36, 1-Methyl-N-[rac-(3s)-tetrahydropyran-3-yl]-2-[2-(2,2,2-trifluoroethylamino)pyrimidin-4-yl]pyrrolo[3,2-c]pyridin-6-amine] | > 1 | 33 to 66 | 67 to 100 |  |  | 
O=C(Nc1cc2[nH]c(-c3ccnc(OCC(F)F)n3)cc2cn1)c1cnn([C@H]2CC[C@@H](O)CC2)c1 [Example 323, N-(2-(2-(2,2-difluoroethoxy)pyrimidin-4-yl)-1H-pyrrolo[3,2-c]pyridin-6-yl)-1-((1s,4s)-4-hydroxycyclohexyl)-1H-pyrazole-4-carboxamide] |  |  |  | 0 to 33 | 0 to 33 | 
Cn1cc(C(=O)Nc2cc3[nH]c(-c4cnco4)cc3cn2)cn1 [Example 64, 1-methyl-N-(2-(oxazol-5-yl)-1H-pyrrolo[3,2-c]pyridin-6-yl)-1H-pyrazole-4-carboxamide] | > 1 | 0 to 33 | 33 to 66 |  |  | 
Cn1cc(C(=O)Nc2cc3[nH]c(C(F)(F)F)cc3cn2)cn1 [Example 341, 1-methyl-N-(2-(tirfluoromethyl)-1H-pyrrolo[3,2-c]pyridin-6-yl)-1H-pyrazole-4-carboxamide] |  |  |  | 0 to 33 | 0 to 33 | 
Cc1cc(-c2cc3cnc(NC(=O)c4cnn(C)c4)cc3[nH]2)ccn1 [Example 224, 1-methyl-N-(2-(2-methylpyridin-4-yl)-1H-pyrrolo[3,2-c]pyridin-6-yl)-1H-pyrazole-4-carboxamide] |  |  |  | 0 to 33 | 33 to 66 | 
Cn1cc(C(=O)Nc2cc3[nH]c(-c4ccnc(O[C@H]5CC[C@@H](O)CC5)n4)cc3cn2)cn1 [Example 325, N-(2-(2-((1s,4s)-4-hydroxycyclohexyloxy)pyrimidin-4-yl)-1H-pyrrolo[3,2-c]pyridin-6-yl)-1-methyl-1H-pyrazole-4-carboxamide] |  |  |  |  |  | % inh @ 1 uM C. parvum [2]: D (single point inhibition values of 0-33% (activity level D)); % inh @ 10 uM C. parvum [3]: D (single point inhibition values of 0-33% (activity level D))
Cc1cc(-c2cc3cnc(NC(=O)C4CCCOC4)cc3[nH]2)ccn1 (centres unmarked) [Example 155, N-(2-(2-methylpyridin-4-yl)-1H-pyrrolo[3,2-c]pyridin-6-yl)tetrahydro-2H-pyran-3-carboxamide] |  | 0 to 33 | 67 to 100 |  |  | 
Cc1cc(-c2cc3cnc(NC4COC4)cc3[nH]2)ccn1 [Example 113, 2-(2-methylpyridin-4-yl)-N-(oxetan-3-yl)-1H-pyrrolo[3,2-c]pyridin-6-amine] | > 1 |  |  |  |  | 
Cc1cc(-c2cc3cnc(N)cc3n2C)ncn1 [Example 125, 1-methyl-2-(6-methylpyrimidin-4-y)-1H-pyrrolo[3,2-c]pyridin-6-amine] | > 1 |  |  |  |  | 
Cc1cc(-c2cc3cnc(NC(=O)c4cccc5c4cnn5C)cc3[nH]2)ccn1 [Example 288, 1-methyl-N-(2-(2-methylpyridin-4-yl)-1H-pyrrolo[3,2-c]pyridin-6-yl)-1H-indazole-4-carboxamide] |  |  |  | 0 to 33 | 0 to 33 | 
COc1nccc(-c2cc3cnc(NC(=O)[C@H]4C[C@@H](O)C4)cc3n2C)n1 [Example 163, (1s,3s)-3-hydroxy-N-(2-(2-methoxypyrimidin-4-yl)-1-methyl-1H-pyrrolo[3,2-c]pyridin-6-yl)cyclobutanecarboxamide] |  | 0 to 33 | 67 to 100 |  |  | 
Cn1cc(C(=O)Nc2cc3[nH]c(C#N)cc3cn2)cn1 [Example 280, N-(2-cyano-1H-pyrrolo[3,2-c]pyridin-6-yl)-1-methyl-1H-pyrazole-4-carboxamide] |  |  |  | 0 to 33 | 0 to 33 | 
COCc1cc2cnc(NC(=O)c3cnn(C)c3)cc2[nH]1 [Example 260, N-(2-(methoxymethyl)-1H-pyrrolo[3,2-c]pyridin-6-yl)-1-methyl-1H-pyrazole-4-carboxamide] |  |  |  | 0 to 33 | 0 to 33 | 
